Experimental data from US9913478B2, “Organic and environmentally “green” biocide compositions and applications” (Arrowhead Center, Inc., priority 2013, dated 2018).

Tested on: X. campestris Provencia strain
Assay: growth (CFU) after 18 hours of incubation, oil compared to carvacrol (FIG. 2)
Format: cell-based, Xanthomonas campestris
Settings: 0.01 mg/ml, oil vs carvacrol p-value=0.009
Method: The bars in the graph indicate the bacterial number (CFU) that was reached after 18 hours of incubation. […] Thus, a composition of biocide comprising oregano oil exerts synergistic effects, due, in part, to the multiple antimicrobial biochemicals that make up the oil (see FIG. 1).

Cc1ccc(C(C)C)cc1O [Carvacrol, carvacrol]
inhibition of growth, bacterial number (CFU): not as effective as the essential oil
